Entries after “also recorded” stand apart in the source; their conditions may differ.
Assays:
HIF-1α PAS-B = HIF-1α PAS-B (Homo sapiens, UniProt Q16665); assay: Isothermal titration calorimetry (ITC) on HIF-1α PAS-B; type: binding; conditions: same conditions as for HIF-2α PAS-B
Source text: (§1) Ensuing allosteric conformational changes propagate to the surface of the domain, weakening interactions with the ARNT PAS-B domain and disrupting heterodimerization of the full length HIF-2 transcription factor.

GST-ARNT-PAS-B*-FLAG = GST-ARNT-PAS-B*-FLAG (Homo sapiens, UniProt P27540, E362R); assay: AlphaScreen control reaction with doubly tagged protein; type: biochemical; conditions: single doubly tagged protein
GST-ARNT-PAS-B*-FLAG, sequence (P27540 355-470 E362R): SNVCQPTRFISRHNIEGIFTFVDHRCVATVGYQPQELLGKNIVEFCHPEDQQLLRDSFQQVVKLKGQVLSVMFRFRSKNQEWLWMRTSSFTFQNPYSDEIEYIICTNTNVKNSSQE
Source text: Upon illumination with red (680 nm) light, donor beads will generate short-lived singlet oxygen (^1O2). Nearby (<200 nm) acceptor beads can react with ^1O2 to emit light at shorter wavelengths (top). Compounds that disrupt the complex correspondingly eliminate this signal (bottom). Compounds that non-specifically interfere with the AlphaScreen assay can be identified with a counterscreen in which the ARNT PAS-B* domain was simultaneously tagged with both the GST and FLAG tags. […] At these concentrations, protein binding to the acceptor beads has become saturated and free ARNT PAS-B* competes with the coated acceptor beads for the donor beads bound to HIF-2α PAS-B*. […] Assays were performed in triplicate and the error bars represent±SD.

[1] = molecular target: T1, full length HIF-2α and ARNT (Homo sapiens, UniProt Q99814); assay: Co-IP of HIF-2α with ARNT, nuclear extracts of hypoxic Hep3B cells; type: biochemical; conditions: increasing concentrations
T1 construct: heterodimerization between full length HIF-2α and ARNT polypeptides; endogenous in cells; host or cells: Hep3B (hypoxic), nuclear extracts
T1 sequence (Q99814 whole entry): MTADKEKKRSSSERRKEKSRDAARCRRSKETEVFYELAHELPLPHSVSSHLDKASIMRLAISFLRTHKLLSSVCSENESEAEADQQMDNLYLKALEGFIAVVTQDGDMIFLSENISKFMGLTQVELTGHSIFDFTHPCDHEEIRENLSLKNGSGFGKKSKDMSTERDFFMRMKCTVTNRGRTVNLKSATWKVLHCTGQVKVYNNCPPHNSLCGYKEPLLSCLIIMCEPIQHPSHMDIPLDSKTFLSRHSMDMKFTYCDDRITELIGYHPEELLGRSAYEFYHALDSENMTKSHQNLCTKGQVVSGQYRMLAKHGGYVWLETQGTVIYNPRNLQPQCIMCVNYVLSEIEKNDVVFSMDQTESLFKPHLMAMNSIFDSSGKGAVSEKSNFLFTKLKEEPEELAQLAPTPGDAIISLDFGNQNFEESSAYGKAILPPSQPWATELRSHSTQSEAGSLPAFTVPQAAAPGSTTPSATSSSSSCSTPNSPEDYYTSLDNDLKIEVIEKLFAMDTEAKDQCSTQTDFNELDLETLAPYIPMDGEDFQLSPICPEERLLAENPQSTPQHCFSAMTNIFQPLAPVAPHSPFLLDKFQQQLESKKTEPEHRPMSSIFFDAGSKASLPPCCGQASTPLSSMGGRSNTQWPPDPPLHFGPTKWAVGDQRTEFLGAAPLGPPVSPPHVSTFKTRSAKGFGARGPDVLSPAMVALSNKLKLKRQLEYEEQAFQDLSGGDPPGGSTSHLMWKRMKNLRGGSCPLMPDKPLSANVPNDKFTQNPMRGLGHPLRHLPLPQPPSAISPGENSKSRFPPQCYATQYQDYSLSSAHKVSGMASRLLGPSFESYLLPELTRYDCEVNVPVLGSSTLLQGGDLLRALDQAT
Protocol: An antibody recognizing the N-terminus of ARNT, was used to immunoprecipitate (IP) the endogenous ARNT protein from the nuclear extracts (FIG. 17 b; top panel).
Co-IP: Nuclear protein extraction and co-IP experiments were performed as reported in Semenza, G. L. Hypoxia-inducible factors: mediators of cancer progression and targets for cancer therapy. […] The following antibodies were used for immunoblot analysis: anti-HIF-1α mouse monoclonal antibody (BD Biosciences); anti-EPAS/HIF-2α mouse monoclonal antibody (Novus Biological); anti-ARNT/HIF-1β mouse monoclonal antibody (Novus Biological).

HIF-1 heterodimerization = molecular target: T2, HIF-1 heterodimerization (Homo sapiens, UniProt Q16665); assay: Co-IP of HIF-1α with ARNT, nuclear extracts of hypoxic Hep3B cells; type: biochemical; conditions: increasing amounts
T2 construct: Nuclear extracts prepared from hypoxic Hep3B cells expressing ARNT, HIF-1α, and HIF-2α (input); endogenous in cells; host or cells: Hep3B (hypoxic), nuclear extracts
T2 sequence (Q16665 whole entry): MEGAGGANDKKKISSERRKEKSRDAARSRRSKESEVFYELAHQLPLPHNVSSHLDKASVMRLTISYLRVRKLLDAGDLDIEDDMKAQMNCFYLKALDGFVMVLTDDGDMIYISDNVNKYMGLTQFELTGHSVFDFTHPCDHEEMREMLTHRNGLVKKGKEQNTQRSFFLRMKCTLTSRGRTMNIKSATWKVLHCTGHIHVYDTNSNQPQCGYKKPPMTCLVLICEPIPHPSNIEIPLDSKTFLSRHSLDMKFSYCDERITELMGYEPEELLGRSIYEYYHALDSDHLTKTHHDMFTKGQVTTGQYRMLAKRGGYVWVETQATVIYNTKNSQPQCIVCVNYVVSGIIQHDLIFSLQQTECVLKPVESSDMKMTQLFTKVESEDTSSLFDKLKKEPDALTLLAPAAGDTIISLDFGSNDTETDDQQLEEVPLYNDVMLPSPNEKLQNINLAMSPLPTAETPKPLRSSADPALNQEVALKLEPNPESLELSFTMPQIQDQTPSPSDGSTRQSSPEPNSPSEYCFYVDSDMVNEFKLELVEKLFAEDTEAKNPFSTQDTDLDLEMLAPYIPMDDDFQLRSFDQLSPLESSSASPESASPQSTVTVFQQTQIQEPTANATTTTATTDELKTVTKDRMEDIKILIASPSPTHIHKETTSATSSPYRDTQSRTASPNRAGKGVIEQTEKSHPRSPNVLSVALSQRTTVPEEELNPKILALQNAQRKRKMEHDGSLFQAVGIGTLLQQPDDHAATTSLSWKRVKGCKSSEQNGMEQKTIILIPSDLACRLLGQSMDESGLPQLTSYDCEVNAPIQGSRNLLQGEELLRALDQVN
T2 sequence (P27540 2-789 partner limits assumed): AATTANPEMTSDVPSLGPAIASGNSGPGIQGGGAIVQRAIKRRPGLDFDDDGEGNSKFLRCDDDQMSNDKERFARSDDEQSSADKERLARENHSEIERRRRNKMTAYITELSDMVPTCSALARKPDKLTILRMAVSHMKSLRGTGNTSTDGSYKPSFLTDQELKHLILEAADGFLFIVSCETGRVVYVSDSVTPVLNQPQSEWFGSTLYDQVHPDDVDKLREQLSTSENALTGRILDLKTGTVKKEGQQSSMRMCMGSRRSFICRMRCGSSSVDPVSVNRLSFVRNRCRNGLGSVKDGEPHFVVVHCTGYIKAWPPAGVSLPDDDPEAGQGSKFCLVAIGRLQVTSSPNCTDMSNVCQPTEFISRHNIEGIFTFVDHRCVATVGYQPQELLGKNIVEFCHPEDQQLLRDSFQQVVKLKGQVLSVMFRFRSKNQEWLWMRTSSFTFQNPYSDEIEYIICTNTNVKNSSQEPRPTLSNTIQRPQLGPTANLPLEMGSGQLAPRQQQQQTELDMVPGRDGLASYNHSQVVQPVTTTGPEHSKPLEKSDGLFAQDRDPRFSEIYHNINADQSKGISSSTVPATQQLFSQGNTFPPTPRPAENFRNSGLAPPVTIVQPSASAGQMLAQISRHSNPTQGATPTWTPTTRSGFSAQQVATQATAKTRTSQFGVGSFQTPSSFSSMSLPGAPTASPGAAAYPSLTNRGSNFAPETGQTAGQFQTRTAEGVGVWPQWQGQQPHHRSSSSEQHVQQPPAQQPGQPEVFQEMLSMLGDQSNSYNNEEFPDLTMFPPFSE
Source text: as §1

786-0 cells = assay: Cell viability, ATP levels by Cell Titer Glo; type: cell-based, human; conditions: 24 hr, as much as 30 μM
Protocol: Assays were performed in triplicates and the error bars represent±SD.
(§2) 786-0 cells, derived from a human renal cell carcinoma, lack functional pVHL and constitutively accumulate HIF-2α under normoxic conditions. These cells also lack detectable HIF-1α expression so that HIF-dependent regulation of target genes is attributable to HIF-2α isoform.

HIF-2α [2] = assay: HIF-2α expression in 786-0 cells (RT-PCR, immunoblot); type: cell-based, human; conditions: normoxic 786-0 cells
Source text: as §2

VEGF [3] = assay: HIF-2 target gene (VEGF) expression in 786-0 cells, RT-PCR; type: cell-based, human; conditions: 18 hr
Source text: as §2

VEGF [4] = assay: VEGF protein secretion by ELISA, 786-O cells; type: cell-based, human; conditions: about 18 hours, 0.00655-20 μM
Protocol: VEGF protein secretion was measured by ELISA following incubation of cultured 786-O cells for about eighteen (18) hours with Compund (1) (FIG. 19a) or with Compound (47) (FIG. 19b).

EPO = EPO mRNA expression in Hep3B cells (HIF-2α marker); type: cell-based; conditions: 1 or 10 μM, hypoxic (1% O2) 6 or 12 hr
PGK1 = PGK1 mRNA expression in Hep3B cells (HIF-1α marker); type: cell-based; conditions: 1 or 10 μM, hypoxic (1% O2) 6 or 12 hr
HIF-2α or HIF-1α mRNA = assay: HIF-1α and HIF-2α mRNA levels in Hep3B cells, RT-PCR; type: cell-based
HIF-2α [5] = assay: ChIP, HIF-2α DNA binding in cultured cells; type: cell-based, human; conditions: 10 μM, hypoxic conditions
Protocol: (§3) Chromatin immunoprecipation (ChIP) using antibodies raised against HIF-1α or HIF-2α was used to measure HIF DNA binding in cultured cells.
(§4) Proc Natl Acad Sci USA 106, 4260-4265 (2009) using the ChIP-IT Express Enzymatic Kit (Active Motif) according to the manufacturer's protocol. ChIP assays were carried out using normal mouse IgG (Santa Cruz Biotechnology), anti-HIF-2α mouse monoclonal antibody (Novus Biologicals), or anti-HIF-1α mouse monoclonal antibody (BD Biosciences). The precipitated genomic DNA was analyzed by qPCR using the primers for a human EPO enhancer amplicon ([…]; […]). The captured genomic DNA was measured by normalizing with that of input material and compared between sample.

HIF-1α = molecular target: T3, HIF-1α (Homo sapiens, UniProt Q16665); assay: ChIP, HIF-1α DNA binding in cultured cells; type: cell-based; conditions: 10 μM, hypoxic conditions
T3 construct: endogenous in cells
T3 sequence (Q16665 whole entry): as the sequence (Q16665 whole entry) above
T3 sequence (P27540 2-789 partner limits assumed): as the sequence (P27540 2-789 partner limits assumed) above
Protocol: as §3, §4

[6] = molecular target: HIF-2α PAS-B*/ARNT PAS-B* heterodimer (Homo sapiens, UniProt Q99814, R247E); assay: AlphaScreen, HIF-2α PAS-B*/ARNT PAS-B* heterodimerization;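 further: GST-tagged HIF-2α PAS-B* and FLAG-tagged ARNT PAS-B* with glutathione donor and anti-FLAG acceptor beads, luminescence after 680 nm excitation, loss of signal indicating disrupted heterodimer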
HIF-2α PAS-B*/ARNT PAS-B* heterodimer, sequence (Q99814 240-350 R247E, one chain of several): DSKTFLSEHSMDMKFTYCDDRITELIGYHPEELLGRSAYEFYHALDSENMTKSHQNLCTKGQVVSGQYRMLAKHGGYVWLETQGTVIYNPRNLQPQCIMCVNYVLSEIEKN
Source text: (FIG. 8a) As shown in the cartoon schematic, interactions between GST-tagged HIF-2α (green) and FLAG-tagged ARNT (blue) PAS-B* domains recruit both donor beads (D), coated with glutathione, and acceptor beads (A), coated with anti-FLAG antibodies, to one another. Upon illumination with red (680 nm) light, donor beads will generate short-lived singlet oxygen (^1O2). Nearby (<200 nm) acceptor beads can react with ^1O2 to emit light at shorter wavelengths (top). Compounds that disrupt the complex correspondingly eliminate this signal (bottom). Compounds that non-specifically interfere with the AlphaScreen assay can be identified with a counterscreen in which the ARNT PAS-B* domain was simultaneously tagged with both the GST and FLAG tags. (FIG. 8b) The AlphaScreen signal (relative units; RU) reflecting protein-protein interactions between 25 (open triangles), 50 (open circles) or 100 (closed circles) nM HIF-2α PAS-B* increases with increasing concentrations of ARNT PAS-B*. At the highest ARNT PAS-B* concentrations, a decrease in signal reflects the hook effect. At these concentrations, protein binding to the acceptor beads has become saturated and free ARNT PAS-B* competes with the coated acceptor beads for the donor beads bound to HIF-2α PAS-B*. […] Assays were performed in triplicate and the error bars represent±SD.
Inhibition of heterodimerization of HIF-2α to HIF1β (ARNT) may be determined in an Amplified Luminescent Proximity Homogeneous Assay (AlphaScreen).
The AlphaScreen assay can be done according to the following procedures: • 1. Prepare cold binding buffer solution: 20 mM Tris-Cl (pH=7.5), 100 mM NaCl, 1 mM DTT, 0.02% Tween-20 (final concentration) and place on ice to keep temperature approximately 4° C. • 2. Prepare Protein Mix: To a 50 mL conical tube add 23 mL of cold buffer and 0.04 mL of both GST-HIF2α PASB* (100 μM) and ARNT-PASB*-Flag (100 μM). • 3. Distribute to 96 well plate: Add 60 μL of protein mix to each wells. • 4. Adding Compound: Dissolve compounds in DMSO to obtain a final concentration of 10 mM. Then create the appropriate dilutions for your particular compound in glass vials. Once all the dilutions are ready place 1 μL of compound in each well. • 5. Prepare Bead mix: In the dark room using green light only create a tube with 3.84 mL of cold buffer and 3 μL of GST Donor beads and Flag acceptor beads. • 6. Distribute Bead mix: Invert the tube a couple times before distributing 40 μL of mix to each well. • 7. Incubation: After adding beads wrap the plate in tin foil twice and remove the covered plate from dark room. Incubate the plate at room temperature while rocking gently for 4 hours. • 8. Read: After 4 hours place the uncovered plate in the plate reader. Make sure the room is relatively tree of white light when placing the plate in the machine. It is ok to have the green light on if needed. • 9. […] Flag acceptor beads should be aliquoted into small opaque tubes (20-50 μl per tube) upon arrival from the manufacturer. Place both sets of beads in 4° C. storage when not in use. • 11. Avoid expose beads to white light. • 12. Pipette beads up and down several times before adding to a tube of cold buffer solution. • 13. Amount of Beads used for Bead mix may vary from batch to batch.

HIF-1α PAS-B, sequence (Q16665 238-349): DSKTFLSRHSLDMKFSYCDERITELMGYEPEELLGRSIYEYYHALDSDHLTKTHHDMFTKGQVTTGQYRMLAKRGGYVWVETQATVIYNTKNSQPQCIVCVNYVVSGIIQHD

O=[N+]([O-])c1c(Nc2cc(F)cc(Cl)c2)ccc2nonc12 [Compound 1, N-(3-chloro-5-fluorophenyl)-4-nitrobenzo[c][1,2,5]oxadiazol-5-amine]
ITC protein-ligand interaction, HIF-1α PAS-B (HIF-1α PAS-B): effectively does not bind; also recorded: does not show detectable protein-ligand interaction | Kd (HIF-1α PAS-B): > 5 µM | Effect on AlphaScreen signal of control reaction (GST-ARNT-PAS-B*-FLAG): No effect | Heterodimerization of full length HIF-2 transcription factor (co-IP) [1]: disrupts heterodimerization | Effect on HIF-1 heterodimerization by Co-IP (HIF-1 heterodimerization): little effect | Toxicity to cultured cells (ATP levels as cell viability) (786-0 cells): No overt toxicity; also recorded: not overtly toxic | Effect on HIF-2α expression (mRNA, protein) (HIF-2α [2]): does not alter; also recorded: no effect | Expression of HIF-2 target gene (VEGF) (VEGF [3]): reduced in a dose-dependent manner; also recorded: antagonized | VEGF protein secretion (VEGF [4]): reduce VEGF protein secretion in a dose-dependent manner | Hypoxic induction of EPO mRNA (EPO): antagonized | Expression of PGK1 (PGK1): no effect | HIF-1α and -2α mRNA levels (HIF-2α or HIF-1α mRNA): no effect | HIF-2α DNA-binding activity (ChIP) (HIF-2α [5]): substantially decreased; also recorded: selectively disrupts | HIF-1α DNA-binding activity (ChIP) (HIF-1α): unaffected | IC50 [6]: 100 nM | Effect on HIF-2α/ARNT PAS-B* heterodimerization in AlphaScreen ([6]; triplicate): blocks heterodimer assembly
